Test results published in PMC11267363, “Supramolecular Nanofibers Ameliorate Bleomycin‐Induced Pulmonary Fibrosis by Restoring Autophagy” (Advanced Science, 2024).
Ends that are not written are not given here.

Assays:
[1] = Self-assembly in saline buffer (Tyndall path, TEM nanostructure); format: physicochemical
Description: To verify our hypothesis, we utilized the self‐assembling factor (Acetyl‐Gly‐Phe‐Phe‐Tyr, Ac‐GFFY) to regulate the secondary conformation of A2 peptide (GGWLTRLLQTK) from p62 UBA domain binding with TRB3.^[ [16] ^] The self‐assembling factor Ac‐GFFY was covalently attached to the N‐terminal of peptide A2 to introduce Ac‐GFFY‐A2 (Figure 2a) as a modulator of the TRB3/p62 PPIs, non‐self‐assembling peptide A2 as the control group. Both of those peptide compounds were synthesized by standard solid phase peptide synthesis (SPPS), purified by reversed‐phase high‐performance liquid chromatography (HPLC), and identified through the high‐resolution mass spectrometry (HR‐MS, Figures S4 and S5, Supporting Information). The 0.5 wt% of peptide Ac‐GFFY‐A2 could observe an obvious “Tyndall path” in saline buffer (0.9% NaCl) after the heating‐cooling process (Figure S13, Supporting Information), compared with peptide A2 solution (0.5 wt%, saline buffer). The critical aggregation concentration (CAC) of those compounds was detected by dynamic light scattering. […] Furthermore, a transmission electron microscope (TEM) was used to observe the nanostructures formed by different compounds. Ac‐GFFY‐A2 could self‐assemble and form entangled nanofibers with a diameter of 8–12 nm (Figure 2b).
Transmission electron microscopy (TEM)
The samples (0.5 wt%, 10 μL) were loaded onto copper mesh coated with carbon.
After excess liquid was removed by a filter paper, 2% uranium acetate was used for dyeing the sample for 1 minute and the sample was dried overnight in a dryer. The samples were then imaged at 200 kV using a Tecnai G2 F20 system.
Circular dichroism (CD) spectrum
A BioLogic (MOS-450) system was used to record the circular dichroism spectrum.
Test wavelengths was in the range from 180 nm to 280 nm. […]
The CAC values were determined by dynamic light scattering (DLS). Solutions containing different concentration of compound in saline buffer were tested and the light scattering intensity was recorded for each concentration analyzed. […]

TRB3/p62 PPIs = molecular target: T1, TRB3/p62 PPIs (Homo sapiens, UniProt Q96RU7); experiment: Co-immunoprecipitation and CLSM co-localization of TRB3/p62 in activated MRC-5 cells; format: cell-based; conditions: TGF-β1 10 ng/mL, peptide 50 µM, 24 h
T1 construct: endogenous in cells
T1 sequence (Q96RU7 1-358): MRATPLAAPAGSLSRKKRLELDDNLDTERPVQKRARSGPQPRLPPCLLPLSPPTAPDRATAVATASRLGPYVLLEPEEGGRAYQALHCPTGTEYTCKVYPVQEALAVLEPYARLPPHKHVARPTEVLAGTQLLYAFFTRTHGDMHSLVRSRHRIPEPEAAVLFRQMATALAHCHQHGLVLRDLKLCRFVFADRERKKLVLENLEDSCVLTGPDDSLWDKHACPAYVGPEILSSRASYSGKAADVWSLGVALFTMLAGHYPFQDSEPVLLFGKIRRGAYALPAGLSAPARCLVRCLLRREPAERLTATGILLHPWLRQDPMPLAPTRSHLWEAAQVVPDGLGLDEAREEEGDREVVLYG
Procedure: The MRC‐5 cells were seeded on the CLSM dish at a density of 6 × 10^4 cells. After adherence, the solution containing TGF‐β1 (10 ng mL^−1), saline plus TGF‐β1 (10 ng mL^−1), A2 (50 µM) plus TGF‐β1 (10 ng mL^−1), Ac‐GFFY‐A2 (50 µM) TGF‐β1 (10 ng mL^−1), was added to incubate cells for 24 h, respectively. Then, the medium was removed and the cells were washed with cold PBS three times. The cells were fixed with 4% of Paraformaldehyde for 10 min at room temperature. Then, the solution was sucked away, and washed by cold PBS three times for a min each time. 0.1% Triton X‐100 solution was used to disrupt the cell membrane structure. […]
Total proteins were exacted from cells or tissues with RIPA lysis buffer (Beyotime Biotecnology). The protein concentration was measured using BCA Protein Assay Kit (Thermo Scientific). […] The protein transferred PVDF membranes were incubated with following primary antibodies at 4°C overnight: Then the membranes were incubated with horseradish peroxidase (HRP)-conjugated secondary antibodies at room temperature for 1 h, and protein signals were detected using an enhanced chemiluminescence kit (Pierce). […] The co -precipitates were resolved using SDS–PAGE and detected with immunoblotting. […]
Hydroxyproline content of right lung of each mouse was measured using a conventional hydroxyproline method as previously described.

Substance	Tyndall path ([1]; 0.5 wt% in saline buffer (0.9% NaCl) after heating-cooling process)	diameter of entangled nanofibers (TEM) ([1]; 0.5 wt% in saline buffer after heating-cooling process, TEM)	disruption of TRB3/p62 PPIs (co-IP, co-localization) (TRB3/p62 PPIs)	nanostructure in TEM image ([1]; 0.5 wt%, saline buffer, TEM)
Ac-GFFYGGWLTRLLQTK-OH [Ac-GFFY-A2]	obvious	8–12 nm	successfully inhibited the TRB3/p62 PPIs	
GGWLTRLLQTK-OH [A2, reference compound]			minimal capacity to disrupt the TRB3/p62 PPIs	amorphous structures
